From patent publication US20020051982A1, “Novel BLR molecules affecting antibiotic susceptibility” (priority 2000, published 2002)
Converted amounts (≈) assume the structure as drawn. Like-named read-outs stand apart in the source and are kept apart here.

Key:
Type in all cases: cell-based, E. coli
[1] = system: ASS111rif blr::TnphoA (=RW583); assay: E-test susceptibility on LB agar, strain RW583 without or with plasmids; design: unit not given here
AW1045 = assay: E-test susceptibility on LB agar, strain AW1045; design: unit not given here
AW1045 blr::TnphoA = assay: E-test susceptibility on LB agar, strain AW1045 blr::TnphoA; design: unit not given here
WY100 = assay: E-test susceptibility on LB agar, strain WY100; design: unit not given here
WY100 blr::TnphoA = assay: E-test susceptibility on LB agar, strain WY100 blr::TnphoA; design: unit not given here
ASS11rif (blr^+) = assay: MIC for ampicillin, complementation test, wild type host; settings: Escherichia coli
[2] = system: RW583 (ASS111rifblr::TnphoA); assay: MIC for ampicillin, complementation in RW583; settings: Escherichia coli
S26 blr^+ = assay: MIC for ampicillin, non-suppressor S26 host, blr^+; settings: plasmid None;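 further: MIC in µg per mL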
S26 blr::TnphoA = assay: MIC for ampicillin, non-suppressor S26 host, blr::TnphoA;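 further: MIC in µg per mL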
S26su^+ blr^+ = assay: MIC for ampicillin, leuX amber suppressor host S26su^+, blr^+; settings: plasmid None;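 further: MIC in µg per mL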
S26su^+ blr::TnphoA = assay: MIC for ampicillin, leuX amber suppressor host S26su^+, blr::TnphoA;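 further: MIC in µg per mL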
RW583 = assay: Antibiotic susceptibility of the blr::TnphoA insertion mutant compared with the parent; settings: for effect of the insertion on susceptibility: transconjugant RW583 (blr::TnphoA) versus parental strain
From the text: Donor E. coli K 12 strain S17-1 λpir (Tp^rSm^rrecA, thi, pro, hsdR^−M^+RP4;2-Tc:Mu:KmTn7,λpir; George and Levy. 1983. J Bacteriol 1983 Aug; 155 (2): 531-48) containing a conjugatable transposon-delivery plasmid pUT/Km (able to replicate only in the donor) which bore mini-Tn5phoA (de Lorenzo, V. & Timmis, K. N. Meth. Enzymol. 235, 386-404 (1994)) was mated with recipient ASS111rif and plated on kanamycin/rifamycin. Transconjugant RW583 had both PhoA activity and a 2-4 fold enhanced susceptibility to a wide spectrum of antibiotics […] including cephalosporins and imipenem (Table 1) as well as cycloserine and bacitracin, while susceptibility to tetracycline, chloramphenicol, nalidixic acid, norfloxacin, gentamicin, fosfomycin or valinomycin was not affected. The insertion was transduced (Provence, D. L. & Curtiss, R. I. in Methods for General and Molecular Bacteriology (ed. Gerhardt, P., Murry, R. G. E., Wood, W. A. & Kreig, N. R.) 317-347 (American Society for Microbiology, Washington D.C. 1994)) by bacteriophage P1 into other E. coli K12 strains, where it had the same effect on susceptibility (Table 1).
The cloned 358 base pairs region restored the wild type phenotype to the hypersusceptible strain bearing blr::TnphoA, regardless of orientation with respect to the lac promoter (Table 1, pRW23C vs pRW23D). The HindIII/PstI fragment of pACYC 184 (carrying the tet promoter and part of the tet gent) was replaced by the HindIII/PstI fragment from pRW23D. […] Therefore the 358 base pairs region appeared to contain all the information needed for complementation.

[3] = system: blr::TnphoA insertion mutant; assay: Decline in optical density of growing cultures; settings: insertion mutant versus wild type
[4] = RW58s + pRW23D (blr^+, 358 base pairs)
[5] = RW583 + pRW23A (blr^+, 680 base pairs)
[6] = RW583 + pRW23C (blr^+, 358 base pairs)
[7] = strain ASS111rif blr::TnphoA (=RW583), no plasmid
[8] = Blr::TnphoA, pL24tag1 (amber blr)
[9] = Blr::TnphoA, pL39tag3 (amber L39 blr)
[10] = blr::TnphoA, pRW23C (wild type blr)

With `CC1(C)S[C@@H]2[C@H](NC(=O)[C@H](N)c3ccccc3)C(=O)N2[C@H]1C(=O)O` [Ampicillin] the “susceptibility (E-test strip)” value [1, 4] was 2, the “susceptibility (E-test strip)” value ([1]; RW583 + pACYC184 (vector)) was 0.5 and the “susceptibility (E-test strip)” value [1, 5] was 3. For the same compound, the “susceptibility (E-test strip)” value [1, 6] was 2, the “susceptibility (E-test strip)” value ([1]; RW583 + pUC19Sp^R (vector)) was 0.25 and the “susceptibility (E-test strip)” value [1, 7] was 0.5. The “susceptibility (E-test strip)” value (AW1045) was 3, the “susceptibility (E-test strip)” value (AW1045 blr::TnphoA) was 0.75 and the “susceptibility (E-test strip)” value (WY100) was 3. The “susceptibility (E-test strip)” value (WY100 blr::TnphoA) was 0.75, the MIC (ASS11rif (blr^+); host ASS11rif blr^+, plasmid pRW23C (wild type blr), read-out: MIC for ampicillin) was 1 µg/mL (≈ 2.86 µM) and the MIC (ASS11rif (blr^+); read-out: MIC for ampicillin, host ASS11rif blr^+, plasmid None) was 1.1 µg/mL (≈ 3.15 µM). The MIC ([2]; host RW583, plasmid None) was 0.13 µg/mL (≈ 0.372 µM), the MIC ([2]; host RW583, plasmid PQ13tag1 (amber Q13 blr)) was 1.1 µg/mL (≈ 3.15 µM) and the MIC ([2]; host RW583, plasmid PV20tag1 (amber V20 blr)) was 1.2 µg/mL (≈ 3.43 µM). It also gave an MIC ([2]; host RW583, plasmid pL24tag1 (amber L24 blr)) of 0.13 µg/mL (≈ 0.372 µM), an MIC ([2]; host RW583, plasmid pRW23C (wild type blr)) of 1.1 µg/mL (≈ 3.15 µM) and an MIC ([2]; host RW583, plasmid pUC19-Sp^R (none)) of 0.09 µg/mL (≈ 0.258 µM). The MIC for ampicillin (S26 blr^+) was 3.3 µg·mL, the MIC for ampicillin (S26 blr::TnphoA; [8]) was 0.9 µg·mL and the MIC for ampicillin (S26 blr::TnphoA; [9]) was 0.2 µg·mL. It also gave an MIC for ampicillin (S26 blr::TnphoA; [10]) of 2.8 µg·mL, an MIC for ampicillin (S26 blr::TnphoA; blr::TnphoA, pUC19-Sp^R (none)) of 0.5 µg·mL and an MIC for ampicillin (S26 blr::TnphoA; blr::TnphoA, plasmid None) of 0.5 µg·mL. The MIC for ampicillin (S26su^+ blr^+) was 3.5 µg·mL, the MIC for ampicillin (S26su^+ blr::TnphoA; [8]) was 2.1 µg·mL and the MIC for ampicillin (S26su^+ blr::TnphoA; [9]) was 0.2 µg·mL. For the same compound, the MIC for ampicillin (S26su^+ blr::TnphoA; [10]) was 3.0 µg·mL, the MIC for ampicillin (S26su^+ blr::TnphoA; blr::TnphoA, pUC19-Sp^R (none)) was 1.1 µg·mL and the MIC for ampicillin (S26su^+ blr::TnphoA; blr::TnphoA, plasmid None) was 1.0 µg·mL. For the same compound, the “restoration of resistance by plasmid” value (RW583; blr::TnphoA strain with pRWA7 (no vector-derived promoter for blr)) was “completely restored resistance” and the “drug concentration required for decline in optical density of growing cultures” value [3] was “lower drug concentration”.

In the case of `CO/N=C(\C(=O)N[C@@H]1C(=O)N2C(C(=O)[O-])=C(C[N+]3(C)CCCC3)CS[C@H]12)c1csc(N)n1` [Cefepime], the “susceptibility (E-test strip)” value [1, 4] is reported as 0.023, the “susceptibility (E-test strip)” value ([1]; RW583 + pACYC184 (vector)) is reported as under 0.016 and the “susceptibility (E-test strip)” value [1, 5] is reported as 0.032. The “susceptibility (E-test strip)” value [1, 6] was 0.023, the “susceptibility (E-test strip)” value ([1]; RW583 + pUC19Sp^R (vector)) was under 0.016 and the “susceptibility (E-test strip)” value [1, 7] was under 0.016. The “susceptibility (E-test strip)” value (AW1045) was 0.023, the “susceptibility (E-test strip)” value (AW1045 blr::TnphoA) was under 0.016 and the “susceptibility (E-test strip)” value (WY100) was 0.047. The “susceptibility (E-test strip)” value (WY100 blr::TnphoA) was under 0.016.

In the case of `CO[C@@]1(NC(=O)Cc2cccs2)C(=O)N2C(C(=O)O)=C(COC(N)=O)CS[C@@H]21` [Cefoxitin], the “susceptibility (E-test strip)” value [1, 4] is reported as 1.5, the “susceptibility (E-test strip)” value ([1]; RW583 + pACYC184 (vector)) is reported as 0.75 and the “susceptibility (E-test strip)” value [1, 5] is reported as 2. The “susceptibility (E-test strip)” value [1, 6] was 1.5, the “susceptibility (E-test strip)” value ([1]; RW583 + pUC19Sp^R (vector)) was 0.75 and the “susceptibility (E-test strip)” value [1, 7] was 1.0. For the same compound, the “susceptibility (E-test strip)” value (AW1045) was 3, the “susceptibility (E-test strip)” value (AW1045 blr::TnphoA) was 1.5 and the “susceptibility (E-test strip)” value (WY100) was 3. For the same compound, the “susceptibility (E-test strip)” value (WY100 blr::TnphoA) was 1.5.

In the case of `CO/N=C(\C(=O)N[C@@H]1C(=O)N2C(C(=O)O)=C(CSc3nc(=O)c(=O)[nH]n3C)CS[C@H]12)c1csc(N)n1` [Ceftriaxone], the “susceptibility (E-test strip)” value [1, 4] is reported as 0.016, the “susceptibility (E-test strip)” value ([1]; RW583 + pACYC184 (vector)) is reported as under 0.016 and the “susceptibility (E-test strip)” value [1, 5] is reported as 0.023. The “susceptibility (E-test strip)” value [1, 6] was 0.016, the “susceptibility (E-test strip)” value ([1]; RW583 + pUC19Sp^R (vector)) was under 0.016 and the “susceptibility (E-test strip)” value [1, 7] was under 0.016. For the same compound, the “susceptibility (E-test strip)” value (AW1045) was 0.032, the “susceptibility (E-test strip)” value (AW1045 blr::TnphoA) was under 0.016 and the “susceptibility (E-test strip)” value (WY100) was 0.125. For the same compound, the “susceptibility (E-test strip)” value (WY100 blr::TnphoA) was 0.32.

`C[C@@H](O)[C@H]1C(=O)N2C(C(=O)O)=C(SCCN=CN)C[C@H]12` [Imipene, imipenem] was tested, and the “susceptibility (E-test strip)” value [1, 4] was 0.25, the “susceptibility (E-test strip)” value ([1]; RW583 + pACYC184 (vector)) was 0.19 and the “susceptibility (E-test strip)” value [1, 5] was 0.38. The “susceptibility (E-test strip)” value [1, 6] was 0.19, the “susceptibility (E-test strip)” value ([1]; RW583 + pUC19Sp^R (vector)) was 0.125 and the “susceptibility (E-test strip)” value [1, 7] was 0.19. For the same compound, the “susceptibility (E-test strip)” value (AW1045) was 0.38, the “susceptibility (E-test strip)” value (AW1045 blr::TnphoA) was 0.125 and the “susceptibility (E-test strip)” value (WY100) was 0.25. For the same compound, the “susceptibility (E-test strip)” value (WY100 blr::TnphoA) was 0.125.

`CCN1CCN(C(=O)N[C@@H](C(=O)N[C@@H]2C(=O)N3[C@@H]2SC(C)(C)[C@@H]3C(=O)O)c2ccccc2)C(=O)C1=O` [Pipericillin] was tested, and the “susceptibility (E-test strip)” value [1, 4] was 1.0, the “susceptibility (E-test strip)” value ([1]; RW583 + pACYC184 (vector)) was 0.25 and the “susceptibility (E-test strip)” value [1, 5] was 1.5. For the same compound, the “susceptibility (E-test strip)” value [1, 6] was 1.0, the “susceptibility (E-test strip)” value ([1]; RW583 + pUC19Sp^R (vector)) was 1.25 and the “susceptibility (E-test strip)” value [1, 7] was 0.25. For the same compound, the “susceptibility (E-test strip)” value (AW1045) was 1.0, the “susceptibility (E-test strip)” value (AW1045 blr::TnphoA) was 0.25 and the “susceptibility (E-test strip)” value (WY100) was 1.5. The “susceptibility (E-test strip)” value (WY100 blr::TnphoA) was 0.75.

In the case of `O=C(N[C@H](CO)[C@H](O)c1ccc([N+](=O)[O-])cc1)C(Cl)Cl` [chloramphenicol], the “effect of the insertion on susceptibility” value (from here on “effect of the insertion”) (RW583) is reported as “not affected”.

For `C[C@@H]1O[C@@H]1P(=O)(O)O` [fosfomycin], the “effect of the insertion” value (RW583) was “not affected”.

For `CCn1cc(C(=O)O)c(=O)c2ccc(C)nc21` [nalidixic acid], the “effect of the insertion” value (RW583) was “not affected”.

`CCn1cc(C(=O)O)c(=O)c2cc(F)c(N3CCNCC3)cc21` [norfloxacin] was tested, and the “effect of the insertion” value (RW583) was “not affected”.

With `CC(C)[C@@H]1NC(=O)[C@H](C)OC(=O)[C@@H](C(C)C)NC(=O)[C@@H](C(C)C)OC(=O)[C@H](C(C)C)NC(=O)[C@H](C)OC(=O)[C@@H](C(C)C)NC(=O)[C@@H](C(C)C)OC(=O)[C@H](C(C)C)NC(=O)[C@H](C)OC(=O)[C@@H](C(C)C)NC(=O)[C@@H](C(C)C)OC1=O` [valinomycin] the “effect of the insertion” value (RW583) was “not affected”.

For gentamicin, the “effect of the insertion” value (RW583) was “not affected”.
